Tested on: C57/B6 mice
Test: Formalin model of neuropathic pain, time spent licking the injured paw
Assay type: in vivo
Conditions: summary in words of table 4
Experimental: The irritation caused by the formalin injection elicits a characteristic biphasic behavioural response, as quantified by the amount of time spent licking the injured paw. The first phase (˜0-10 minutes) represents direct chemical irritation and nociception, whereas the second (˜20-30 minutes) is thought to represent pain of neuropathic origin. The two phases are separated by a quiescent period in which behaviour returns to normal. Measuring the amount of time spent licking the injured paw in the two phases assesses the effectiveness of test compounds to reduce the painful stimuli. Eight C57/B6 mice (ca. 25 g) were tested per group. Table 4 below show the amount of time spent licking the injured paw in the two phases, i.e. 0-5 minutes and 20-30 minutes post formalin injection. The amount of compound administered is calculated as the free base.

Cc1ccc(Sc2ccccc2C2CCNCC2)cc1 [compound I, 4-[2-(4-methylphenylsulfanyl)-phenyl]piperidine]
Effect in the first phase (direct chemical irritation and nociception): little effect | Effect in the second phase (time spent licking paws): clear and dose dependent decrease

From US9315459B2, “Crystalline forms of 4-[2-(4-methylphenylsulfanyl)-phenyl] piperidine” (priority 2006, dated 2016)
